According to patent US11472798B2 (Mission Therapeutics Limited, priority 2014, dated 2022):

Molecular target: T1, UCHL1 (Homo sapiens, UniProt P09936)
T1 construct: made in house; host or cells: HEK293T
T1 sequence (P09936 1-223): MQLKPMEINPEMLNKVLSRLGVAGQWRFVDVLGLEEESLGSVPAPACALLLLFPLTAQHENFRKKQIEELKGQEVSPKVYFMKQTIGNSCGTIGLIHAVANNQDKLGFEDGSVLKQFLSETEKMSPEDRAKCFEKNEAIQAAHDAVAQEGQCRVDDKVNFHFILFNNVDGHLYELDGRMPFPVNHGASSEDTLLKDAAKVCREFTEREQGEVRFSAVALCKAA
Experiment: UCHL1 biochemical IC50 assay (fluorescence polarisation)
Details: 30 min enzyme/compound pre-incubation at room temp, read after 2 hr incubation, read-out: Activity range (UCHL1 biochemical IC50 assay)
In short: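 FLAG-UCHL1 purified from transfected HEK293T cells was preincubated 30 min at room temperature with compound (8 points, 100–0.03 μM final) in Tris pH 7.5 buffer with Tween 20, BSA and beta-mercaptoethanol. Reaction started with 50 nM TAMRA-peptide–ubiquitin isopeptide substrate; fluorescence polarisation (ex 540/em 590 nm) read at once and after 2 h.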

Row | Structure (SMILES) | IC50
1 | Cn1nccc1-c1ccc2nc(NC(=O)[C@H]3CCN(C#N)C3)sc2c1 [Example 123, (S)-1-cyano-N-(6-(1-methyl-1H-pyrazol-5-yl)benzo[d]thiazol-2-yl)pyrrolidine-3-carboxamide] | < 1 µM
2 | Cn1cc(-c2ccc3nc(NC(=O)[C@H]4CCN(C#N)C4)sc3c2)cn1 [Example 124, (S)-1-cyano-N-(6-(1-methyl-1H-pyrazol-4-yl)benzo[d]thiazol-2-yl)pyrrolidine-3-carboxamide] | < 1 µM
3 | Cc1n[nH]c(C)c1-c1ccc2nc(NC(=O)[C@H]3CCN(C#N)C3)sc2c1 [Example 125, (S)-1-cyano-N-(6-(3,5-dimethyl-1H-pyrazol-4-yl)benzo[d]thiazol-1-2-yl)pyrrolidine-3-carboxamide] | < 1 µM
4 | Cc1oncc1-c1ccc2nc(NC(=O)[C@H]3CCN(C#N)C3)sc2c1 [Example 126, (S)-1-cyano-N-(6-(5-methylisoxazol-4-yl)benzo[d]thiazol-2-yl)pyrrolidine-3-carboxamide] | < 1 µM
5 | Cc1noc(C)c1-c1ccn2cc(NC(=O)[C@H]3CCN(C#N)C3)nc2c1 [Example 127, (S)-1-cyano-N-(7-(3,5-dimethylisoxazol-4-yl)imidazo[1,2-a]pyridin-2-yl)pyrrolidine-3-carboxamide] | < 1 µM
6 | Cc1noc(C)c1-c1ccc2nc(NC(=O)[C@H]3CCN(C#N)C3)cn2c1 [Example 128, (S)-1-cyano-N-(6-(3,5-dimethylisoxazol-4-yl)imidazo[1,2-a]pyridin-2-yl)pyrrolidine-3-carboxamide] | < 1 µM
7 | N#CN1CC[C@H](C(=O)Nc2cn3cc(C4CC4)ccc3n2)C1 [Example 129, (S)-1-cyano-N-(6-cyclopropylimidazo[1,2-a]pyridin-2-yl)pyrrolidine-3-carboxamide] | < 1 µM
8 | N#CN1CCC(C(=O)Nc2nc3ccc(C4CC4)cc3s2)C1 (stereo not drawn) [Example 130, 1-cyan-N-(6-cyclopropylbenzo[d]thiazol-2-yl)pyrrolidine-3-carboxamide] | < 1 µM
9 | COc1cc(-c2ccc3nc(NC(=O)[C@H]4CCN(C#N)C4)cn3c2)c(OC)nn1 [Example 131, (S)-1-cyano-N-(6-(3,6-dimethoxypyridazin-4-yl)imidazo[1,2-a]pyridin-2-yl)pyrrolidine-3-carboxamide] | < 1 µM
10 | COc1cc(-c2ccc3nc(NC(=O)[C@H]4CCN(C#N)C4)sc3c2)c(OC)nn1 [Example 132, (S)-1-cyano-N-(6-(3,6-dimethoxypyridazin-4-yl)benzo[d]thiazol-2-yl)pyrrolidine-3-carboxamide] | < 1 µM
11 | Cc1noc(C)c1-c1ccc2nc(NC(=O)[C@H]3CCN(C#N)[C@H]3C)sc2c1 [Example 133, (2S,3S)-1-cyano-N-(6-(3,5-dimethylisoxazol-4-yl)benzo[d]thiazol-2-yl)-2-methyl-pyrrolidine-3-carboxamide] | < 1 µM
12 | Cc1ccc(-c2ccc(NC(=O)C3CCN(C#N)C3)nc2)cc1 (stereo not drawn) [Example 134, 1-cyano-N-(5-(p-tolyl)pyridin-2-yl)pyrrolidine-3-carboxamide] | 1 to 10 µM
13 | Cc1cccc(-c2ccc(NC(=O)C3CCN(C#N)C3)nc2)c1 (stereo not drawn) [Example 135, 1-cyano-N-(5-(m-tolyl)pyridin-2-yl)pyrrolidine-3-carboxamide] | 1 to 10 µM
14 | Cc1ccccc1-c1ccc(NC(=O)C2CCN(C#N)C2)nc1 (stereo not drawn) [Example 136, 1-cyano-N-(5-(o-tolyl)pyridin-2-yl)pyrrolidine-3-carboxamide] | 1 to 10 µM
15 | Cc1noc(C)c1-c1ccc2nc(NC(=O)[C@H]3CCN(C#N)C3)cn2c1C [Example 137, (S)-1-cyano-N-(6-(3,5-dimethylisoxazol-4-yl)-5-methylimidazo[1,2-a]pyridin-2-yl)pyrrolidine-3-carboxamide] | < 1 µM
16 | Cc1noc(C)c1-c1ccc2nc(NC(=O)[C@H]3CCN(C#N)C3)sc2c1C [Example 138, (S)-1-cyano-N-(6-(3,5-dimethylisoxazol-4-yl)-7-methylbenzo[d]thiazol-2-yl)pyrrolidine-3-carboxamide] | < 1 µM
17 | Cc1c(-c2cnn(C)c2)ccc2nc(NC(=O)[C@H]3CCN(C#N)C3)sc12 [Example 139, (S)-1-cyano-N-(7-methyl-6-(1-methyl-1H-pyrazol-4-yl)benzo[d]thiazol-2-yl)pyrrolidine-3-carboxamide] | < 1 µM
18 | N#CN1CCC(C(=O)Nc2ncc(CN3CCOCC3)s2)C1 (stereo not drawn) [Example 140, 1-cyano-N-(5-(morpholinomethyl)thiazol-2-yl)pyrrolidine-3-carboxamide] | < 1 µM
19 | N#CN1CCC(C(=O)Nc2ncc(CN3CCCC3)s2)C1 (stereo not drawn) [Example 141, 1-cyano-N-(5-(pyrrolidin-1-ylmethyl)thiazol-2-yl)pyrrolidine-3-carboxamide] | 1 to 10 µM
20 | CC1CN(Cc2cnc(NC(=O)[C@H]3CCN(C#N)C3)s2)CC(C)O1 (stereo partly drawn) [Example 142, (3S)-1-cyano-N-(5-((2,6-dimethylmorpholino)methyl)thiazol-2-yl)pyrrolidine-3-carboxamide] | 1 to 10 µM

Row | Structure (SMILES) | IC50
21 | COC[C@H]1CCCN1Cc1cnc(NC(=O)[C@H]2CCN(C#N)C2)s1 [Example 143, (S)-1-cyano-N-(5-(((R)-2-(methoxymethyl)pyrrolidin-1-yl)methyl)thiazol-2-yl)pyrrolidine-3-carboxamide] | 1 to 10 µM
22 | COC[C@@H]1CCCN1Cc1cnc(NC(=O)[C@H]2CCN(C#N)C2)s1 [Example 144, (S)-1-cyano-N-(5-(((S)-2-(methoxymethyl)pyrrolidin-1-yl)methyl)thiazol-2-yl)pyrrolidine-3-carboxamide] | 1 to 10 µM
23 | COC[C@H]1CCCN1Cc1cnc(NC(=O)[C@H]2CCN(C#N)[C@H]2C)s1 [Example 145, (2S,3S)-1-cyano-N-(5-(((R)-2-(methoxymethyl)pyrrolidin-1-yl)methyl)thiazol-2-yl)-2-methylpyrrolidine-3-carboxamide] | 1 to 10 µM
24 | N#CN1CC[C@H](C(=O)Nc2cn(Cc3ccccc3)cn2)C1 [Example 146, (S)—N-(1-benzyl-1H-imidazol-4-yl)-1-cyanopyrrolidine-3-carboxamide] | < 1 µM
25 | N#CN1CC[C@H](C(=O)Nc2cn(CCc3ccccc3)cn2)C1 [Example 147, (S)-1-cyano-N-(1-phenethyl-1H-imidazol-4-yl)pyrrolidine-3-carboxamide] | < 1 µM
26 | CC(C)Cn1cnc(NC(=O)[C@H]2CCN(C#N)C2)c1 [Example 148, (S)-1-cyano-N-(1-isobutyl-1H-imidazol-4-yl)pyrrolidine-3-carboxamide] | 1 to 10 µM
27 | C[C@H]1[C@@H](C(=O)Nc2cn(Cc3ccccc3)cn2)CCN1C#N [Example 149, (2S,3S)—N-(1-benzyl-1H-imidazol-4-yl)-1-cyano-2-methylpyrrolidine-3-carboxamide] | < 1 µM
28 | N#CN1CC[C@H](C(=O)Nc2cn(-c3ccc(F)cc3)cn2)C1 [Example 150, (S)-1-cyano-N-(1-(4-fluorophenyl)-1H-imidazol-4-yl)pyrrolidine-3-Carboxamide] | < 1 µM
29 | N#CN1CC[C@H](C(=O)Nc2cn(-c3cccc(F)c3)cn2)C1 [Example 151, (S)-1-cyano-N-(1-(3-fluorophenyl)-1H-imidazol-4-yl)pyrrolidine-3-carboxamide] | < 1 µM
30 | N#CN1CC[C@H](C(=O)Nc2cn(-c3ccccc3F)cn2)C1 [Example 152, (S)-1-cyano-N-(1-(2-fluorophenyl)-1H-imidazol-4-yl)pyrrolidine-3-carboxamide] | < 1 µM
31 | N#CN1CC[C@H](C(=O)Nc2cn(-c3ccc(C(F)(F)F)cc3)cn2)C1 [Example 153, (S)-1-cyano-N-(1-(4-(trifluoromethyl)phenyl)-1H-imidazol-4-yl)pyrrolidine-3-carboxamide] | < 1 µM
32 | N#CN1CC[C@H](C(=O)Nc2cn(-c3cccc(C(F)(F)F)c3)cn2)C1 [Example 154, (S)-1-cyano-N-(1-(3-(trifluoromethyl)phenyl)-1H-imidazol-4-yl)pyrrolidine-3-carboxamide] | < 1 µM
33 | CNC(=O)c1ccc(-n2cnc(NC(=O)[C@H]3CCN(C#N)C3)c2)cc1 [Example 155, (S)-1-cyano-N-(1-(4-(methylcarbamoyl)phenyl)-1H-imidazol-4-yl)pyrrolidine-3-carboxamide] | < 1 µM
34 | CNC(=O)c1cccc(-n2cnc(NC(=O)[C@H]3CCN(C#N)C3)c2)c1 [Example 156, (S)-1-cyano-N-(1-(3-(methylcarbamoyl)phenyl)-1H-imidazol-4-yl)pyrrolidine-3-carboxamide] | < 1 µM
35 | CNC(=O)c1ccccc1-n1cnc(NC(=O)[C@H]2CCN(C#N)C2)c1 [Example 157, (S)-1-cyano-N-(1-(2-(methylcarbamoyl)phenyl)-1H-imidazol-4-yl)pyrrolidine-3-carboxamide] | 1 to 10 µM
36 | COCCNC(=O)c1ccc(-n2cnc(NC(=O)[C@H]3CCN(C#N)C3)c2)cc1 [Example 158, (S)-1-cyano-N-(1-(4-((2-methoxyethyl)carbamoyl)phenyl)-1H-imidazol-4-yl)pyrrolidine-3-carboxamide] | < 1 µM
37 | COc1ccc(-n2cnc(NC(=O)[C@H]3CCN(C#N)C3)c2)cc1 [Example 159, (S)-1-cyano-N-(1-(4-methoxyphenyl)-1H-imidazol-4-yl)pyrrolidine-3-carboxamide] | < 1 µM
38 | COc1ccccc1-n1cnc(NC(=O)[C@H]2CCN(C#N)C2)c1 [Example 160, (S)-1-cyano-N-(1-(2-methoxyphenyl)-1H-imidazol-4-yl)pyrrolidine-3-carboxamide] | < 1 µM
39 | N#CN1CC[C@H](C(=O)Nc2cn(C3CCOCC3)cn2)C1 [Example 161, (S)-1-cyano-N-(1-(tetrahydro-2H-pyran-4-yl)-1H-imidazol-4-yl)pyrrolidine-3-carboxamide] | < 1 µM
